Measurements taken from ChEMBL document CHEMBL4373646, “Synthesis, ribosomal selectivity, and antibacterial activity of netilmicin 4'-derivatives” (Medchemcomm, 2019).
≈ marks a conversion by molar mass, not a printed value.

Columns and labels:
[1] = system: human cytoplasmic ribosome (Cyt 14 hybrid); test: Selectivity ratio of IC50 for inhibition of human cytoplasmic ribosome Cyt 14 hybridized with Mycobacterium smegmatis ribosomes to IC50 for inhibition of Mycobacterium smegmatis wild type ribosomes; format: toxicity; conditions: read-out: Ratio IC50
[2] = system: Pseudomonas aeruginosa; test: Antibacterial activity against Pseudomonas aeruginosa clinical isolate AG031; format: functional
[3] = system: Staphylococcus aureus; test: Antibacterial activity against methicillin-resistant Staphylococcus aureus clinical isolate AG039; format: functional
[4] = target: Bacterial 70S ribosome; test: Inhibition of Mycobacterium smegmatis wild type ribosomes assessed as inhibition of translation activity using Firefly luciferase mRNA reporter based luminescence analysis; format: subcellular, Mycolicibacterium smegmatis
[5] = system: Escherichia coli; test: Antibacterial activity against Escherichia coli clinical isolate AG001; format: functional
[6] = system: Escherichia coli; test: Antibacterial activity against Escherichia coli clinical isolate AG003; format: functional
[7] = Inhibition of human mitochondrial ribosome Mit 13 hybridized with Mycobacterium smegmatis ribosome assessed as inhibition of translation activity using Firefly luciferase mRNA reporter based luminescence analysis
[8] = Inhibition of human mitochondrial ribosome Mit 13 A1555G mutant hybridized with Mycobacterium smegmatis ribosome assessed as inhibition of translation activity using Firefly luciferase mRNA reporter based luminescence analysis
[9] = system: Pseudomonas aeruginosa; test: Antibacterial activity against Pseudomonas aeruginosa clinical isolate AG033; format: functional
[10] = Inhibition of human cytoplasmic ribosome Cyt 14 hybridized with Mycobacterium smegmatis ribosome assessed as inhibition of translation activity using Firefly luciferase mRNA reporter based luminescence analysis
[11] = system: Staphylococcus aureus; test: Antibacterial activity against methicillin-resistant Staphylococcus aureus clinical isolate AG038; format: functional
[12] = system: human mitochondrial ribosome A1555G mutant (Mit 13 A1555G hybrid); test: Selectivity ratio of IC50 for inhibition of human mitochondrial ribosome Mit 13 A1555G mutant hybridized with Mycobacterium smegmatis ribosomes to IC50 for inhibition of Mycobacterium smegmatis wild type ribosomes; format: toxicity; conditions: read-out: Ratio IC50
[13] = system: Pseudomonas aeruginosa; test: Antibacterial activity against Pseudomonas aeruginosa clinical isolate AG032; format: functional
[14] = system: human mitochondrial ribosome (Mit 13 hybrid); test: Selectivity ratio of IC50 for inhibition of human mitochondrial ribosome Mit 13 hybridized with Mycobacterium smegmatis ribosome to IC50 for inhibition of Mycobacterium smegmatis wild type ribosomes; format: toxicity; conditions: read-out: Ratio IC50
[15] = system: Staphylococcus aureus; test: Antibacterial activity against methicillin-resistant Staphylococcus aureus clinical isolate AG042 harboring with ANT4',4\" gene; format: functional
[16] = system: Escherichia coli; test: Antibacterial activity against Escherichia coli clinical isolate AG055; format: functional

Row | SMILES | selectivity ratio [1] | MIC [2] | MIC [3] | IC50 [4] | MIC [5] | MIC [6] | IC50 [7] | IC50 [8] | MIC [9] | IC50 [10] | MIC [11] | selectivity ratio [12] | MIC [13] | selectivity ratio [14] | MIC [15] | MIC [16]
1 | CCCCC1=C(CN)O[C@H](O[C@H]2[C@H](O)[C@@H](O[C@H]3OC[C@](C)(O)[C@H](NC)[C@H]3O)[C@H](NCC)C[C@@H]2N)[C@H](N)C1 | 1610 | 64 µg/mL (≈ 120 µM) | 16 µg/mL (≈ 30.1 µM) | 0.58 µM | 8 to 16 µg/mL (≈ 15 to 30.1 µM) | 8 to 16 µg/mL (≈ 15 to 30.1 µM) | 408 µM | 22 µM | > 128 µg/mL | 940 µM | 16 µg/mL (≈ 30.1 µM) | 37 | 64 µg/mL (≈ 120 µM) | 699 | 64 µg/mL (≈ 120 µM) | 5 µg/mL (≈ 9.4 µM)
2 | NC[C@@H]1O[C@H](O[C@H]2[C@@H](O)[C@H](O[C@@H]3[C@@H](O)[C@H](N)C[C@H](N)[C@H]3O[C@H]3O[C@H](CO)[C@@H](O)[C@H](O)[C@H]3N)O[C@@H]2CO)[C@H](N)[C@@H](O)[C@@H]1O [PAROMOMYCIN] | 816 | – | – | 0.038 µM | – | – | 142 µM | 12 µM | – | 31 µM | – | 315 | – | 3740 | – | –
3 | CCC[C@H]1[C@H](O)[C@@H](N)[C@@H](O[C@H]2[C@H](O[C@@H]3O[C@H](CO)[C@@H](O[C@H]4O[C@@H](CN)[C@@H](O)[C@H](O)[C@H]4N)[C@H]3O)[C@@H](O)[C@H](N)C[C@@H]2N)O[C@@H]1CO | 2060 | – | – | 0.031 µM | – | – | 167 µM | 52 µM | – | 64 µM | – | 1680 | – | 5390 | – | –
4 | CCS[C@H]1[C@H](O)[C@@H](N)[C@@H](O[C@H]2[C@H](O[C@@H]3O[C@H](CO)[C@@H](O[C@H]4O[C@@H](CN)[C@@H](O)[C@H](O)[C@H]4N)[C@H]3O)[C@@H](O)[C@H](N)C[C@@H]2N)O[C@@H]1CO | 1960 | – | – | 0.053 µM | – | – | 166 µM | 76 µM | – | 104 µM | – | 1430 | – | 3130 | – | –
5 | CCN[C@@H]1C[C@H](N)[C@@H](O[C@H]2OC(CN)=C(c3ccccc3)C[C@H]2N)[C@H](O)[C@H]1O[C@H]1OC[C@](C)(O)[C@H](NC)[C@H]1O | 299 | 16 to 32 µg/mL (≈ 29 to 58 µM) | 16 µg/mL (≈ 29 µM) | 0.27 µM | 4 µg/mL (≈ 7.25 µM) | 64 µg/mL (≈ 116 µM) | 29 µM | 3.5 µM | > 64 µg/mL | 81 µM | 8 µg/mL (≈ 14.5 µM) | 13 | 16 to 32 µg/mL (≈ 29 to 58 µM) | 106 | 64 µg/mL (≈ 116 µM) | 2 µg/mL (≈ 3.63 µM)
6 | CCN[C@@H]1C[C@H](N)[C@@H](O[C@H]2OC(CN)=CC[C@H]2N)[C@H](O)[C@H]1O[C@H]1OC[C@](C)(O)[C@H](NC)[C@H]1O [NETILMICIN] | 3450 | 2 µg/mL (≈ 4.21 µM) | 0.5 µg/mL (≈ 1.05 µM) | 0.02 µM | 2 µg/mL (≈ 4.21 µM) | 8 µg/mL (≈ 16.8 µM) | 28 µM | 0.7 µM | > 128 µg/mL | 69 µM | 0.5 µg/mL (≈ 1.05 µM) | 35 | 2 µg/mL (≈ 4.21 µM) | 1400 | 2 µg/mL (≈ 4.21 µM) | 2 µg/mL (≈ 4.21 µM)
7 | CCN[C@@H]1C[C@H](N)[C@@H](O[C@H]2OC(CN)=C(I)C[C@H]2N)[C@H](O)[C@H]1O[C@H]1OC[C@](C)(O)[C@H](NC)[C@H]1O | 2210 | 4 to 8 µg/mL (≈ 6.65 to 13.3 µM) | 16 µg/mL (≈ 26.6 µM) | 0.1 µM | 2 µg/mL (≈ 3.33 µM) | 16 µg/mL (≈ 26.6 µM) | 49 µM | 1.5 µM | > 128 µg/mL | 221 µM | 4 to 8 µg/mL (≈ 6.65 to 13.3 µM) | 15 | 4 to 8 µg/mL (≈ 6.65 to 13.3 µM) | 490 | 64 µg/mL (≈ 106 µM) | 1 to 2 µg/mL (≈ 1.66 to 3.33 µM)
8 | CCN[C@@H]1C[C@H](N)[C@@H](O[C@H]2OC(CN)=C(Br)C[C@H]2N)[C@H](O)[C@H]1O[C@H]1OC[C@](C)(O)[C@H](NC)[C@H]1O | 1460 | 8 µg/mL (≈ 14.4 µM) | 8 to 16 µg/mL (≈ 14.4 to 28.9 µM) | 0.1 µM | 2 µg/mL (≈ 3.61 µM) | 16 µg/mL (≈ 28.9 µM) | 52 µM | 1.2 µM | 64 µg/mL (≈ 115 µM) | 146 µM | 4 µg/mL (≈ 7.21 µM) | 12 | 8 µg/mL (≈ 14.4 µM) | 520 | 64 µg/mL (≈ 115 µM) | 1 to 2 µg/mL (≈ 1.8 to 3.61 µM)
9 | CCN[C@@H]1C[C@H](N)[C@@H](O[C@H]2OC(CN)=C(Cl)C[C@H]2N)[C@H](O)[C@H]1O[C@H]1OC[C@](C)(O)[C@H](NC)[C@H]1O | > 5000 | 4 µg/mL (≈ 7.84 µM) | 8 µg/mL (≈ 15.7 µM) | 0.1 µM | 4 µg/mL (≈ 7.84 µM) | 16 to 32 µg/mL (≈ 31.4 to 62.7 µM) | 58 µM | 1.5 µM | > 128 µg/mL | > 500 µM | 4 µg/mL (≈ 7.84 µM) | 15 | 64 µg/mL (≈ 125 µM) | 580 | 32 µg/mL (≈ 62.7 µM) | 2 to 4 µg/mL (≈ 3.92 to 7.84 µM)
10 | CCN[C@@H]1C[C@H](N)[C@@H](O[C@H]2OC(CN)=C(SCC)C[C@H]2N)[C@H](O)[C@H]1O[C@H]1OC[C@](C)(O)[C@H](NC)[C@H]1O | 1160 | > 128 µg/mL | 32 µg/mL (≈ 59.7 µM) | 0.67 µM | 16 µg/mL (≈ 29.9 µM) | 8 to 16 µg/mL (≈ 14.9 to 29.9 µM) | 256 µM | 46 µM | > 128 µg/mL | 783 µM | 32 µg/mL (≈ 59.7 µM) | 69 | 128 µg/mL (≈ 239 µM) | 381 | 128 µg/mL (≈ 239 µM) | 8 to 16 µg/mL (≈ 14.9 to 29.9 µM)
